In series [1] the test system is intracellular nonspecific esterase. Briefly: Individual-cell sequential FDA hydrolysis (KMAPP, VMAX) on CS-S cytometer. Conditions: for FI rate ratios of the same trapped cells sequentially exposed to different FDA concentrations: same cell carrier; for average KMAPP / average VMAX: average of individual cells. The series is classed as cell-based, human. The protocol:
Measuring Intracellular Nonspecific Esterase Activity in a Single Lymphocyte Using Fluorescein-Diacetate (FDA) as the Substrate.
Phytohemagglutinin PHA (HA15, Murex Biotech) was reconstituted in 5 ml of double-distilled water and further diluted ten times. For stimulation, 10 μl of this solution was added to a 90 μl cell suspension (7×10^6 cells/ml).
A staining solution of 3.6 μM FDA (Riedel-de Haen Ag. Seelze-Hanover) in Dulbecco Phosphate Buffered Saline (PBS, Biological Industries) was prepared as follows: 50 mg of FDA was dissolved in 5 ml of DMSO (Sigma). 7.5 μl of this solution was added to 50 ml PBS. For 0.6, 1.2 and 2.4 μM the solution was further diluted in PBS.
30 Heparinized blood (30 ml), was taken from healthy, normal volunteers. The procedure for separating the PBMC has been described in detail, elsewhere [Sunray M, Deutsch M, Kaufman M, Tirosh R, Weinreb A, and Rachmani H. Cell Activation influences cell staining linetics, Spectrochimica Acta A (1997) 53:1645-1653]. Shortly after removing the iron absorbing cells, the remaining cells are layered on a two-layer (100% and 80%) cell density gradient (Ficoll Paque, Pharmacia 1.077 g/ml) and centrifuged. The cells accumulated at the interface between the two Ficoll layers, were collected and kept at 37° C. in 5 ml of enriched culture medium overnight. The next day the PBMC were washed and resuspended in PBS at a final concentration of 7·10^6 cells/ml. More than 70% of the cells were defined as T lymphocytes and viability, which was determined using eosin, was always higher than 90%.
Freshly prepared PBMC (7·10^6 cells/ml) were incubated at 37° C., 5% CO2 with 5 μgr/ml PHA for 30 minutes. PBMC controls were incubated without PHA under identical conditions.
The multiparametric, computerized, discrete cytometer CS-S used in performing this example was described in detail in the above specified US Patents. Its central feature is a cell carrier (CC) incorporating a 100×100 dimensional array having a conical cross-section with an upper opening of ˜7 μm and lower opening of ·4 μm, each approximately 20 μm apart, in which individual cells are trapped. The cell carrier is mounted on a computer-controlled stage that enables repeated multi-scanning of the same cells.
Loading the cells in wells traps on the Cell Carrier (CC) was carried out, as described in Deutsch M, and Weinreb A., Apparatus for High Precision Repetitive Sequential Optical Measurement of Living Cells, Cytometry (1994) 16: 214-226. An aliquot of 80 μl of unstained cell suspension (7×10^6 cells/ml) was loaded on the CC. Initial scanning was then performed in order to detect individual cell background scattering and auto-fluorescence. This undesired signal is recorded per measurement location and subtracted from the total emission signal (after exposure) in order to obtain the correct fluorescence signal.
For fluorescence intensity FI(t) measurements, trapped cells on the CC were sequentially exposed to increasing concentrations of FDA in PBS staining solutions.
Following background measurement, the volume of PBS, which covers the cells, was pumped out and the following procedure was carried out:
At time point zero, 40 μl of the lowest substrate concentration solution was applied on top of the trapped cells and a pre-chosen cell field was sequentially scanned 6 times. This yielded 6 accurately timed FI data points per each individual cell at a given dye concentration. FI is usually measured utilizing epi-fluoescence optical arrangement which permits the differentiation between the excitation energy and the emitted fluorescence energy to be detected by photomultipliers, CCD detectors etc.
The above procedure is repeated for each different substrate solution used in the experiment.
This yielded six FI data points for each individual cell, per substrate concentration, from which V was extracted and the individual cell KMAPP and VMAX values were calculated. […]

Series [2] has the same test system. The series is described as follows: Flow cytometer (FACSCalibur) population average KMAPP and VMAX of FDA hydrolysis. The series is classed as cell-based, human. The protocol: Methods Cell Biol (1994) 41: 469-508. Four means of intracellular fluorescence intensities (IFI) were calculated from data accumulated along four time gates of 25 second each and 30 seconds apart, from which V0 was extracted. This process was sequentially performed on five different aliquots of cells (50 μl, at a concentration of 6×10^6 cells/ml) each exposed to different FDA concentrations (0.3, 0.6, 1.2, 1.8 and 2.4 μM. Introducing these average V0 in values Eq. 8 yielded population average KMAPP and VMAX of 2.16 μM and 4.32 μM and 6.6 and 5.83 in cells incubated with and without PHA. It should be noted that while KMAPP is an intrinsic value, VMAX depends on the optoelelctronic arrangement under use. Thus, obviously, at the population level, measurements carried out both on FC and average calculated from individual cell KMAPP measurement data yield similar KMAPP values, indicating the validity of the invented methodology.
(Flow cytometry measures light scatter and fluorescence of single cells or particles in a stream.)

Series [3] has the same test system. The series is described as follows: Individual-cell sequential FDA hydrolysis (KMAPP, VMAX) on CS-S cytometer. The series is classed as cell-based, human. The following applies: different cell carriers.
The subject of series [4] is Peripheral blood lymphocytes. The following applies: individual cell, FDA staining before and after incubation at 37° C., FIG. 7.
Description: Peripheral blood lymphocytes were loaded on a CC, and exposed to FDA, after which individual FI(t) was measured. […] At the end of incubation, the same cells were again exposed to the same FDA concentration and FI(t) measurements were again performed.
Since cells are in general heterogeneous, one would expect a distribution of FI(t) rates (slopes) in the same experiment. […] Thus, in such an experimental procedure, the determining parameter is the ratio between the initial and the final slopes, namely, the ratios between FI(t) slopes prior to and after incubation (with and without drugs), as well as ratios of individual KMAPP and VMAX prior to and after incubation.
[5] abbreviates: 1.2/0.6 μM FDA (concentration ratio 2.0).
[6] abbreviates: 2.4/0.6 μM FDA (concentration ratio 4.0).
Where [7] appears, read: 3.6/0.6 μM FDA (concentration ratio 6.0).
[8] abbreviates: FDA substrate, cells incubated without PHA, CS-S.
The mark [9] stands for this setting: FDA substrate, cells incubated without PHA.
Where [10] appears, read: PHA-incubated vs control cells, CS-S.

On to `CC(=O)Oc1ccc2c(c1)Oc1cc(OC(C)=O)ccc1C21OC(=O)c2ccccc21` [FDA, Fluorescein-Diacetate], for which the “FI rate ratios of the same trapped cells sequentially exposed to different FDA concentrations” value is on record as 2.1 in series [1] (setting [5]), 3.6 in series [1] (setting [6]) and 5.6 in series [1] (setting [7]). In addition, the “average KMAPP” value in series [1] (setting [8]) turned out to be 4.88 µM. In series [1] (setting [8]), the “average VMAX” value is listed as 695 intensity/sec. Also, the “population average KMAPP” value in series [2] (setting [9]) stood at 4.32 µM. Moreover, the “population average VMAX” value in series [2] (setting [9]) is recorded as 5.83. Besides, the “FI rate ratios of cells parallely exposed to different FDA concentrations” value worked out at 1.9 in series [3] (setting [5]), 4.4 in series [3] (setting [6]) and 6.2 in series [3] (setting [7]).
Take `OO` [H2O2, hydrogen peroxide]: the “ratio pre to post treatment slopes (FI rate), control cells relative to treated cells” value in series [4] is reported as “double”.
Turning to Phytohemagglutinin [PHA], in series [1] (setting [10]), the “decrease in KMAPP compared to the control” value worked out at 69% and the “decrease in VMAX compared to the control” value turned out to be 6%. The “average KMAPP” value in series [1] (cells incubated with PHA, FDA substrate 0.6-3.6 μM, CS-S) is 1.50 µM. Further, the “average VMAX” value in series [1] (cells incubated with PHA, FDA substrate, CS-S) is on record as 652 intensity/sec. Further, the “population average VMAX” value in series [2] (cells incubated with PHA) was determined as 6.6. Besides, the “population average KMAPP” value in series [2] (cells incubated with PHA, FDA 0.3-2.4 μM) amounted to 2.16 µM.

For the origin of these results see patent US20030211458A1, “Measurements of enzymatic activity in a single, individual cell in population” (priority 2000, published 2003).
